Results reported in patent publication US20240174634A1, “Aldehyde Dehydrogenase Inhibitors and Their Therapeutic Use” (priority 2020, published 2024).

target: T1, ALDH2 (Homo sapiens, UniProt P05091); experiment: Selectivity biochemical assay, NAD(P)H-Glo Detection System
T1 sequence (P05091 18-517): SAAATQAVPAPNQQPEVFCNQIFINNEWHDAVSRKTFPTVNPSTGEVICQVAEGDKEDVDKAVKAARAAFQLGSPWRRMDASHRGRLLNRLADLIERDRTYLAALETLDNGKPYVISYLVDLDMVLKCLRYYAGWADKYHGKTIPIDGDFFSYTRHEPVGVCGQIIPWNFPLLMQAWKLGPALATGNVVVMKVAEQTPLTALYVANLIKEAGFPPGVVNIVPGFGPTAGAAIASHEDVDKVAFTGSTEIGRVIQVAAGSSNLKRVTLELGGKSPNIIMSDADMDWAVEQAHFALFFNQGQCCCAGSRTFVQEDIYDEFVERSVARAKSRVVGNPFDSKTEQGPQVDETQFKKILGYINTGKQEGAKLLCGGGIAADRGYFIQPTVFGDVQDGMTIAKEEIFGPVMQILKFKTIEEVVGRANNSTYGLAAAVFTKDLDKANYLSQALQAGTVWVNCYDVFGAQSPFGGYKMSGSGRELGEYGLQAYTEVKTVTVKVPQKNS
Procedure: Materials: ALDH2 was purchased from Abnova. Tris(hydroxymethyl)aminomethane (Tris) was purchased from MP Biomedicals. TCEP, ethylenediaminetetraacetic acid (EDTA), propionaldehyde, DMSO and Tween-20 were purchased from Sigma. Nicotinamide adenine dinucleotide (NAD) was obtained from Abcam. The NAD(P)H-Glo™ Detection System was purchased from Promega. White, non-binding surface, 384 well plates were supplied by Corning (#3574).
Method: Inhibition of ALDH1A3 was assessed using the NAD(P)H-Glo™ Detection System (Cat. No. G9062) from Promega. This assay detects the production of NADH from NAD by ALDH1A3 via the coupled enzymatic conversion of a proluciferin reductase substrate to generate a luminescent signal. Inhibition of ALDH1A3 by small molecule inhibitors will result in reduction or abrogation of luminescence signal increase above background. Inhibition of ALDH1A1, ALDH1A2 and ALDH2 (selectivity assays) were assessed using the same assay.
Compounds were dosed into Corning 384 well assay plates using an Echo acoustic dispenser to give 10 point curves in a 3-fold dilution series. Compounds were dispensed from a 20 mM DMSO stock and initially screened at a top concentration of 20 μM (ALDH1A3) or 250 μM (ALDH1A1, ALDH1A2 & ALDH2). Enzyme was added to the plate in a 5 μL volume, according to the final concentrations in table 1 below, and pre-incubated with compound for 30 minutes at room temperature before the addition of 5 μL of the substrate (propionaldehyde) and cofactor (NAD), to effect final concentrations equal to the Km as shown in Table 1. The assay buffer used consisted of 40 mM Tris for 1A1 (pH 7.6), 1A2 (pH 7.6) and 1A3 (pH 9.0) and 10 mM Tris for ALDH2 (pH 8.0) supplemented with 1 mM TCEP, 0.01% Tween-20, 0.1 mM EDTA. The reaction mix was incubated at 26° C. on a shaking incubator for 30 minutes before being stopped by the addition of 10 μL of the Promega detection reagent and 100×IC50 of inhibitors of the respective isoforms. After stopping the reaction the plate was incubated for 60 minutes at room temperature and the luminescence signal read on a PheraStar FS microplate reader (BMG Labtech) and resulting IC50 values were calculated using Dotmatics software.
Enzyme, substrate and cofactor concentrations were selected to ensure the reaction ran under initial velocity conditions.

Row | Structure (SMILES) | IC50
1 | Cn1cc(C2CCCN2CCOc2ccc3c(c2)SCC(=O)N3)cn1 (centres unmarked) [ALDHI-2026, 7-[2-[2-(1-methylpyrazol-4-yl)pyrrolidin-1-yl]ethoxy]-4H-1,4-benzothiazin-3-one] | ≥ 100 µM
2 | O=C1CSc2cc(OCCN3CCCC3c3cccnc3)ccc2N1 (centres unmarked) [ALDHI-2028, 7-[2-[2-(3-pyridyl)pyrrolidin-1-yl]ethoxy]-4H-1,4-benzothiazin-3-one] | ≥ 100 µM
3 | O=C1CCc2cc(OCCN3CCC[C@H]3c3cccc(F)c3)ccc2N1 [ALDHI-2018, 6-[2-[(2S)-2-(3-fluorophenyl)pyrrolidin-1-yl]ethoxy]-3,4-dihydro-1H-quinolin-2-one] | ≥ 100 µM
4 | CN(CCOc1ccc2c(c1)CCC(=O)N2)C(CO)c1cccc(F)c1 (centres unmarked) [ALDHI-3003, 6-[2-[[1-(3-fluorophenyl)-2-hydroxy-ethyl]-methyl-amino]ethoxy]-3,4-dihydro-1H-quinolin-2-one] | ≥ 100 µM
5 | CC1Cc2cc(OCCN3CCCC3c3cccc(F)c3)ccc2NC1=O (centres unmarked) [ALDHI-2048, 6-[2-[2-(3-fluorophenyl)pyrrolidin-1-yl]ethoxy]-3-methyl-3,4-dihydro-1H-quinolin-2-one] | ≥ 100 µM
6 | O=C1CCc2cc(NC(=O)c3sc(N4CC(O)C4)nc3-c3cccc(F)c3)ccc2N1 [ALDHI-1004, 4-(3-fluorophenyl)-2-(3-hydroxyazetidin-1-yl)-N-(2-oxo-3,4-dihydro-1H-quinolin-6-yl)thiazole-5-carboxamide] | ≥ 100 µM
7 | O=C1CCc2cc(OCCN3CCOCC3c3cccc(F)c3)ccc2N1 (centres unmarked) [ALDHI-2031, 6-[2-[3-(3-fluorophenyl)morpholin-4-yl]ethoxy]-3,4-dihydro-1H-quinolin-2-one] | ≥ 100 µM
8 | O=C1CCc2cc(OCCN3CCCCC3c3cccc(F)c3)ccc2N1 (centres unmarked) [ALDHI-2038, 6-[2-[2-(3-fluorophenyl)-1-piperidyl]ethoxy]-3,4-dihydro-1H-quinolin-2-one] | ≥ 100 µM
9 | O=C1CCc2cc(OCCN3CCCC3c3ccsc3)ccc2N1 (centres unmarked) [ALDHI-2014, 6-[2-[2-(3-thienyl)pyrrolidin-1-yl]ethoxy]-3,4-dihydro-1H-quinolin-2-one] | ≥ 100 µM
10 | CC1(c2cccc(F)c2)CCCN1CCOc1ccc2c(c1)CCC(=O)N2 (centres unmarked) [ALDHI-2037, 6-[2-[2-(3-fluorophenyl)-2-methyl-pyrrolidin-1-yl]ethoxy]-3,4-dihydro-1H-quinolin-2-one] | ≥ 100 µM
11 | O=C1CCc2cc(OCCN3CC(F)CC3c3cccc(F)c3)ccc2N1 (centres unmarked) [ALDHI-2052, 6-[2-[4-fluoro-2-(3-fluorophenyl)pyrrolidin-1-yl]ethoxy]-3,4-dihydro-1H-quinolin-2-one] | ≥ 100 µM
12 | CN(C)c1nc(-c2cccc(F)c2)c(C(=O)Nc2ccc3c(c2)CCC(=O)N3)s1 [ALDHI-1002, 2-(dimethylamino)-4-(3-fluorophenyl)-N-(2-oxo-3,4-dihydro-1H-quinolin-6-yl)thiazole-5-carboxamide] | ≥ 100 µM
13 | O=C1CCc2cc(NC(=O)c3cncnc3-c3cccc(F)c3)ccc2N1 [ALDHI-1018, 4-(3-fluorophenyl)-N-(2-oxo-3,4-dihydro-1H-quinolin-6-yl)pyrimidine-5-carboxamide] | ≥ 100 µM
14 | CN(CCOc1ccc2c(c1)CCC(=O)N2)Cc1cccnc1 [ALDHI-3010, 6-[2-[methyl(3-pyridylmethyl)amino]ethoxy]-3,4-dihydro-1H-quinolin-2-one] | ≥ 100 µM
15 | O=C1CCc2cc(OCCN3CCCC3c3cc(F)cc(F)c3)ccc2N1 (centres unmarked) [ALDHI-2032, 6-[2-[2-(3,5-difluorophenyl)pyrrolidin-1-yl]ethoxy]-3,4-dihydro-1H-quinolin-2-one] | ≥ 100 µM
16 | O=C1CCc2cc(OCCN(CCO)Cc3cccnc3)ccc2N1 [ALDHI-3005, 6-[2-[2-hydroxyethyl(3-pyridylmethyl)amino]ethoxy]-3,4-dihydro-1H-quinolin-2-one] | ≥ 100 µM
17 | O=c1ccc2cc(OCCN3CCCC3c3cccc(F)c3)ccc2[nH]1 (centres unmarked) [ALDHI-2022, 6-[2-[2-(3-fluorophenyl)pyrrolidin-1-yl]ethoxy]-1H-quinolin-2-one] | ≥ 100 µM
